The NIST ThermoML archive (doi:10.1021/je401097f)

Experiments:
[1] = refractive index (other wavelength) (dimensionless); details: 100 kPa, Liquid, Wavelength=632.8 nm, Standard Abbe refractometry
[2] = refractive index (other wavelength) (dimensionless); xn = mol fraction of the nth substance listed; details: 296.36 K, 100 kPa, Liquid, Wavelength=632.8 nm, Standard Abbe refractometry

CCCCCCCCC [nonane]
[1]
Details | refractive index
290.88 K | 1.4053
291.94 K | 1.4048
292.73 K | 1.4044
293.55 K | 1.404
294.5 K | 1.4036
295.51 K | 1.4031
296.48 K | 1.4026
297.42 K | 1.4022

O=[N+]([O-])c1ccccc1 [nitrobenzene]
[1]
Details | refractive index
288.97 K | 1.5501
289.62 K | 1.5497
290.5 K | 1.5493
291.45 K | 1.5488
292.36 K | 1.5484
293.38 K | 1.5479
294.4 K | 1.5474
295.5 K | 1.5469
301.66 K | 1.5439
302.72 K | 1.5433
303.85 K | 1.5428
304.98 K | 1.5423
306.08 K | 1.5418
307.2 K | 1.5412
308.25 K | 1.5407
309.34 K | 1.5402

O=[N+]([O-])c1ccccc1 [nitrobenzene] + CCCCCCCCC
[2]
Details | refractive index
x1 = 0.153 | 1.4162
x1 = 0.2 | 1.4207
x1 = 0.275 | 1.4284
x1 = 0.379 | 1.4401
x1 = 0.541 | 1.4612
x1 = 0.594 | 1.4691
x1 = 0.688 | 1.4838
x1 = 0.799 | 1.5035
x1 = 0.896 | 1.5231
x1 = 1 | 1.5467

CCCCCCCCC [nonane] + O=[N+]([O-])c1ccccc1
Details | refractive index
[2], x2 = 0 | 1.4029
